Assay results published in patent publication US10597388B2, “Pyridazinone herbicides” (FMC CORPORATION, priority 2014, dated 2020).

What was measured:
Type in all cases: in vivo
kochia (Kochia scoparia) = test: Test C greenhouse herbicide test, postemergence
Outline: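 Postemergence foliar treatment, 1- to 4-leaf stage (2–18 cm), peat/vermiculite medium; greenhouse 13–15 d; visual rating vs controls, 0 = no effect, 100 = complete control; dash = no result.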

[1] = system: nutsedge, yellow (yellow nutsedge, Cyperus esculentus); test: Test C greenhouse herbicide test, pre- and postemergence
Outline: (§1)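 Pre- and postemergence greenhouse screen; values are visual control ratings, 0 meaning no effect and 100 complete kill, assigned relative to untreated plants after 13 to 15 d.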

[2] = system: pigweed (Amaranthus retroflexus); test: as above
Outline: as §1

[3] = system: ryegrass, Italian (Italian ryegrass, Lolium multiflorum); test: as above
Outline: as §1

[4] = system: foxtail, giant (giant foxtail, Setaria faberii); test: as above
Outline: as §1

[5] = system: waterhemp (common waterhemp, Amaranthus rudis); test: as above
Outline: as §1

[6] = system: blackgrass (Alopecurus myosuroides); test: as above
Outline: as §1

corn (Zea mays) = test: as above
Outline: as §1

soybean (Glycine max) = test: as above
Outline: as §1

[7] = system: lambsquarters (Chenopodium album); test: as above
Outline: as §1

[8] = system: johnsongrass (Sorghum halepense); test: as above
Outline: as §1

[9] = system: oilseed rape (Brassica napus); test: as above
Outline: as §1

[10] = system: wheat (winter wheat, Triticum aestivum); test: as above
Outline: as §1

[11] = system: morningglory (Ipomoea coccinea); test: as above
Outline: as §1

[12] = system: ragweed (common ragweed, Ambrosia elatior); test: as above
Outline: as §1

[13] = system: crabgrass, large (large crabgrass, Digitaria sanguinalis); test: as above
Outline: as §1

[14] = Postemergence, 31 g ai/ha, scale 0 to 100 (0 no effect, 100 complete control)
[15] = Postemergence, 62 g ai/ha, 0 to 100 scale (0 no effect, 100 complete control)
[16] = Postemergence, 250 g ai/ha, scale 0 to 100, 0 no effect, 100 complete control, 13 to 15 d
[17] = postemergence, 125 g ai/ha, scale 0 to 100, 0 no effect, 100 complete control
[18] = Preemergence, 31 g ai/ha, scale 0 to 100, 0 is no effect, 100 is complete control
[19] = Preemergence, 62 g ai/ha, scale 0 to 100, 0 is no effect, 100 is complete control
[20] = Preemergence, 125 g ai/ha, scale 0 to 100, 0 is no effect, 100 is complete control
[21] = Preemergence, 250 g ai/ha, scale 0 to 100 (0 no effect, 100 complete control)

CC(=O)Oc1c(Br)nn(C)c(=O)c1-c1c(C)ccc2ccccc12 [Compound 129]
Plant response rating, Kochia (kochia (Kochia scoparia); [14]): 50
Kochia plant response rating (kochia (Kochia scoparia); [15]): 60
Plant response rating, Kochia (kochia (Kochia scoparia); [16]): 95
Kochia plant response rating (kochia (Kochia scoparia); [17]): 90
Plant response rating, Nutsedge, Yellow [1, 14]: 60
Nutsedge, Yellow plant response rating [1, 15]: 75
Plant response rating, Nutsedge, Yellow [1, 16]: 95
Plant response rating, Nutsedge, Yellow [1, 18]: 55
Plant response rating, Nutsedge, Yellow [1, 19]: 85
Plant response rating, Nutsedge, Yellow [1, 20]: 90
Nutsedge, Yellow plant response rating [1, 21]: 95
Nutsedge, Yellow plant response rating [1, 17]: 85
Plant response rating, Pigweed [2, 14]: 95
Pigweed plant response rating [2, 15]: 95
Plant response rating, Pigweed [2, 16]: 98
Plant response rating, Pigweed [2, 18]: 100
Plant response rating, Pigweed [2, 19]: 98
Plant response rating, Pigweed [2, 20]: 98
Pigweed plant response rating [2, 21]: 100
Pigweed plant response rating [2, 17]: 98
Plant response rating, Ryegrass, Italian [3, 14]: 70
Ryegrass, Italian plant response rating [3, 15]: 90
Plant response rating, Ryegrass, Italian [3, 16]: 95
Plant response rating, Ryegrass, Italian [3, 18]: 90
Plant response rating, Ryegrass, Italian [3, 19]: 90
Plant response rating, Ryegrass, Italian [3, 20]: 95
Ryegrass, Italian plant response rating [3, 21]: 95
Ryegrass, Italian plant response rating [3, 17]: 95
Plant response rating, Foxtail, Giant [4, 14]: 60
Foxtail, Giant plant response rating [4, 15]: 75
Plant response rating, Foxtail, Giant [4, 16]: 95
Plant response rating, Foxtail, Giant [4, 18]: 85
Plant response rating, Foxtail, Giant [4, 19]: 90
Plant response rating, Foxtail, Giant [4, 20]: 95
Foxtail, Giant plant response rating [4, 21]: 98
Foxtail, Giant plant response rating [4, 17]: 85
Plant response rating, Waterhemp [5, 14]: 75
Waterhemp plant response rating [5, 15]: 70
Plant response rating, Waterhemp [5, 16]: 98
Plant response rating, Waterhemp [5, 18]: 90
Plant response rating, Waterhemp [5, 19]: 95
Plant response rating, Waterhemp [5, 20]: 100
Waterhemp plant response rating [5, 21]: 100
Waterhemp plant response rating [5, 17]: 85
Plant response rating, Blackgrass [6, 14]: 35
Blackgrass plant response rating [6, 15]: 40
Plant response rating, Blackgrass [6, 16]: 80
Plant response rating, Blackgrass [6, 18]: 5
Plant response rating, Blackgrass [6, 19]: 30
Plant response rating, Blackgrass [6, 20]: 70
Blackgrass plant response rating [6, 21]: 80
Blackgrass plant response rating [6, 17]: 60
Plant response rating, Corn (corn (Zea mays); [14]): 0
Corn plant response rating (corn (Zea mays); [15]): 20
Plant response rating, Corn (corn (Zea mays); [16]): 30
Plant response rating, Corn (corn (Zea mays); [18]): 0
Plant response rating, Corn (corn (Zea mays); [19]): 5
Plant response rating, Corn (corn (Zea mays); [20]): 15
Corn plant response rating (corn (Zea mays); [21]): 40
Corn plant response rating (corn (Zea mays); [17]): 30
Plant response rating, Soybean (soybean (Glycine max); [14]): 0
Soybean plant response rating (soybean (Glycine max); [15]): 10
Plant response rating, Soybean (soybean (Glycine max); [16]): 25
Plant response rating, Soybean (soybean (Glycine max); [18]): 0
Plant response rating, Soybean (soybean (Glycine max); [19]): 0
Plant response rating, Soybean (soybean (Glycine max); [20]): 5
Soybean plant response rating (soybean (Glycine max); [21]): 20
Soybean plant response rating (soybean (Glycine max); [17]): 20
Plant response rating, Lambsquarters [7, 14]: 95
Lambsquarters plant response rating [7, 15]: 95
Plant response rating, Lambsquarters [7, 16]: 98
Plant response rating, Lambsquarters [7, 18]: 85
Plant response rating, Lambsquarters [7, 19]: 80
Plant response rating, Lambsquarters [7, 20]: 85
Lambsquarters plant response rating [7, 21]: 90
Lambsquarters plant response rating [7, 17]: 95
Plant response rating, Johnsongrass [8, 14]: 10
Johnsongrass plant response rating [8, 15]: 15
Plant response rating, Johnsongrass [8, 16]: 25
Plant response rating, Johnsongrass [8, 18]: 5
Plant response rating, Johnsongrass [8, 19]: 5
Plant response rating, Johnsongrass [8, 20]: 10
Johnsongrass plant response rating [8, 21]: 25
Johnsongrass plant response rating [8, 17]: 15
Plant response rating, Oilseed Rape [9, 14]: 0
Oilseed Rape plant response rating [9, 15]: 0
Plant response rating, Oilseed Rape [9, 16]: 5
Plant response rating, Oilseed Rape [9, 18]: 5
Plant response rating, Oilseed Rape [9, 19]: 50
Plant response rating, Oilseed Rape [9, 20]: 90
Oilseed Rape plant response rating [9, 21]: 90
Oilseed Rape plant response rating [9, 17]: 5
Plant response rating, Wheat [10, 14]: 10
Wheat plant response rating [10, 15]: 35
Plant response rating, Wheat [10, 16]: 55
Plant response rating, Wheat [10, 18]: 35
Plant response rating, Wheat [10, 19]: 50
Plant response rating, Wheat [10, 20]: 55
Wheat plant response rating [10, 21]: 85
Wheat plant response rating [10, 17]: 40
Plant response rating, Morningglory [11, 14]: 98
Morningglory plant response rating [11, 15]: 100
Plant response rating, Morningglory [11, 16]: 100
Plant response rating, Morningglory [11, 18]: 85
Plant response rating, Morningglory [11, 19]: 90
Plant response rating, Morningglory [11, 20]: 90
Morningglory plant response rating [11, 21]: 98
Morningglory plant response rating [11, 17]: 100
Plant response rating, Ragweed [12, 14]: 90
Ragweed plant response rating [12, 15]: 90
Plant response rating, Ragweed [12, 16]: 95
Plant response rating, Ragweed [12, 18]: 70
Plant response rating, Ragweed [12, 19]: 85
Plant response rating, Ragweed [12, 20]: 95
Ragweed plant response rating [12, 21]: 95
Ragweed plant response rating [12, 17]: 95
Plant response rating, Crabgrass, Large [13, 14]: 20
Crabgrass, Large plant response rating [13, 15]: 30
Plant response rating, Crabgrass, Large [13, 16]: 60
Plant response rating, Crabgrass, Large [13, 18]: 5
Plant response rating, Crabgrass, Large [13, 19]: 25
Plant response rating, Crabgrass, Large [13, 20]: 75
Crabgrass, Large plant response rating [13, 21]: 85
Crabgrass, Large plant response rating [13, 17]: 35

Cc1nn(C)c(=O)c(-c2cccc3ccc(C#N)cc23)c1O [Compound 127]
Plant response rating, Kochia (kochia (Kochia scoparia); [14]): 40
Kochia plant response rating (kochia (Kochia scoparia); [15]): 85
Plant response rating, Kochia (kochia (Kochia scoparia); [16]): 90
Kochia plant response rating (kochia (Kochia scoparia); [17]): 95
Plant response rating, Nutsedge, Yellow [1, 14]: 10
Nutsedge, Yellow plant response rating [1, 15]: 35
Plant response rating, Nutsedge, Yellow [1, 16]: 70
Nutsedge, Yellow plant response rating [1, 17]: 60
Plant response rating, Pigweed [2, 14]: 70
Pigweed plant response rating [2, 15]: 85
Plant response rating, Pigweed [2, 16]: 95
Pigweed plant response rating [2, 17]: 90
Plant response rating, Ryegrass, Italian [3, 14]: 50
Ryegrass, Italian plant response rating [3, 15]: 75
Plant response rating, Ryegrass, Italian [3, 16]: 90
Ryegrass, Italian plant response rating [3, 17]: 80
Plant response rating, Foxtail, Giant [4, 14]: 5
Foxtail, Giant plant response rating [4, 15]: 5
Plant response rating, Foxtail, Giant [4, 16]: 40
Foxtail, Giant plant response rating [4, 17]: 25
Plant response rating, Waterhemp [5, 14]: 70
Waterhemp plant response rating [5, 15]: 85
Plant response rating, Waterhemp [5, 16]: 95
Waterhemp plant response rating [5, 17]: 85
Plant response rating, Blackgrass [6, 14]: 0
Blackgrass plant response rating [6, 15]: 5
Plant response rating, Blackgrass [6, 16]: 35
Blackgrass plant response rating [6, 17]: 5
Plant response rating, Corn (corn (Zea mays); [14]): 0
Corn plant response rating (corn (Zea mays); [15]): 0
Plant response rating, Corn (corn (Zea mays); [16]): 10
Corn plant response rating (corn (Zea mays); [17]): 5
Plant response rating, Soybean (soybean (Glycine max); [14]): 0
Soybean plant response rating (soybean (Glycine max); [15]): 10
Plant response rating, Soybean (soybean (Glycine max); [16]): 35
Soybean plant response rating (soybean (Glycine max); [17]): 30
Plant response rating, Lambsquarters [7, 14]: 70
Lambsquarters plant response rating [7, 15]: 80
Plant response rating, Lambsquarters [7, 16]: 98
Lambsquarters plant response rating [7, 17]: 85
Plant response rating, Johnsongrass [8, 14]: 5
Johnsongrass plant response rating [8, 15]: 5
Plant response rating, Johnsongrass [8, 16]: 15
Johnsongrass plant response rating [8, 17]: 10
Plant response rating, Oilseed Rape [9, 14]: 0
Oilseed Rape plant response rating [9, 15]: 0
Plant response rating, Oilseed Rape [9, 16]: 100
Oilseed Rape plant response rating [9, 17]: 25
Plant response rating, Wheat [10, 14]: 0
Wheat plant response rating [10, 15]: 5
Plant response rating, Wheat [10, 16]: 30
Wheat plant response rating [10, 17]: 5
Plant response rating, Morningglory [11, 14]: 65
Morningglory plant response rating [11, 15]: 75
Plant response rating, Morningglory [11, 16]: 98
Morningglory plant response rating [11, 17]: 85
Plant response rating, Ragweed [12, 14]: 10
Ragweed plant response rating [12, 15]: 55
Plant response rating, Ragweed [12, 16]: 90
Ragweed plant response rating [12, 17]: 60
Plant response rating, Crabgrass, Large [13, 14]: 0
Crabgrass, Large plant response rating [13, 15]: 5
Plant response rating, Crabgrass, Large [13, 16]: 25
Crabgrass, Large plant response rating [13, 17]: 10
